Measurements from publication PMC3872965 (Journal of immunology (Baltimore, Md. : 1950), 2013).

System: B*0702-transgenic mice
Settings: mouse, in vivo, sc

Sequence: RPRWLDARV
- Average T cell response: 659 SFC/10^6 CD8^+
